From the NIST ThermoML archive (doi:10.1021/acs.jced.8b00699)
± gives the expanded uncertainty stated by the source.

Conditions: Liquid, Closed cell (Static) method

Structure (SMILES): CCCCCCCCC#N [nonanenitrile]
- vapor or sublimation pressure (273.66 K): 0.00148 ± 0.00013 kPa
- vapor or sublimation pressure (278.15 K): 0.00231 ± 0.00015 kPa
- vapor or sublimation pressure (283.15 K): 0.0037 ± 0.00018 kPa
- vapor or sublimation pressure (288.15 K): 0.00585 ± 0.00025 kPa
- vapor or sublimation pressure (293.15 K): 0.00907 ± 0.00037 kPa
- vapor or sublimation pressure (298.15 K): 0.01387 ± 0.00053 kPa
- vapor or sublimation pressure (303.16 K): 0.02079 ± 0.00064 kPa
- vapor or sublimation pressure (308.18 K): 0.03074 ± 0.00079 kPa

Structure (SMILES): CCCCCCC#N [heptanenitrile]
- vapor or sublimation pressure (238.15 K): 0.00048 ± 0.00011 kPa
- vapor or sublimation pressure (243.15 K): 0.00085 ± 0.00012 kPa
- vapor or sublimation pressure (248.15 K): 0.00146 ± 0.00013 kPa
- vapor or sublimation pressure (253.15 K): 0.00246 ± 0.00015 kPa
- vapor or sublimation pressure (258.15 K): 0.00408 ± 0.00019 kPa
- vapor or sublimation pressure (263.15 K): 0.00662 ± 0.00028 kPa
- vapor or sublimation pressure (268.15 K): 0.01055 ± 0.00042 kPa
- vapor or sublimation pressure (273.15 K): 0.01647 ± 0.00057 kPa
- vapor or sublimation pressure (273.66 K): 0.01723 ± 0.00058 kPa
- vapor or sublimation pressure (278.16 K): 0.02527 ± 0.00071 kPa
- vapor or sublimation pressure (283.15 K): 0.03801 ± 0.00091 kPa
- vapor or sublimation pressure (288.15 K): 0.05634 ± 0.0012 kPa
- vapor or sublimation pressure (293.15 K): 0.0819 ± 0.0017 kPa
- vapor or sublimation pressure (298.15 K): 0.1175 ± 0.0023 kPa
- vapor or sublimation pressure (303.16 K): 0.1649 ± 0.0027 kPa
- vapor or sublimation pressure (308.18 K): 0.2302 ± 0.0035 kPa

Structure (SMILES): CCCCCCCC#N [octanenitrile]
- vapor or sublimation pressure (238.15 K): 0.00012 ± 0.00011 kPa
- vapor or sublimation pressure (243.15 K): 0.00021 ± 0.00011 kPa
- vapor or sublimation pressure (248.15 K): 0.00037 ± 0.00012 kPa
- vapor or sublimation pressure (253.15 K): 0.00064 ± 0.00012 kPa
- vapor or sublimation pressure (258.15 K): 0.00108 ± 0.00012 kPa
- vapor or sublimation pressure (263.15 K): 0.0018 ± 0.00014 kPa
- vapor or sublimation pressure (268.15 K): 0.00295 ± 0.00016 kPa
- vapor or sublimation pressure (273.15 K): 0.00476 ± 0.00021 kPa
- vapor or sublimation pressure (273.65 K): 0.00502 ± 0.00022 kPa
- vapor or sublimation pressure (278.15 K): 0.00758 ± 0.00031 kPa
- vapor or sublimation pressure (283.15 K): 0.01175 ± 0.00047 kPa
- vapor or sublimation pressure (288.15 K): 0.01796 ± 0.00059 kPa
- vapor or sublimation pressure (293.15 K): 0.02693 ± 0.00073 kPa
- vapor or sublimation pressure (298.15 K): 0.0398 ± 0.00094 kPa
- vapor or sublimation pressure (303.15 K): 0.05793 ± 0.0013 kPa
- vapor or sublimation pressure (308.15 K): 0.08314 ± 0.0017 kPa
